Read-outs that look alike come from different tables or passages of the source.
Biological target: IRAK4 (Homo sapiens (Human), UniProt Q9NWZ3)
Assay: IRAK-4 biochemical kinase assay, AlphaScreen format
Procedure: The biochemical assay is in a AlphaScreen format. The kinase reaction is based on the IRAK-4 phosphorylation of a biotin labeled peptide. The phosphopeptide is incubated with anti-phosphothreonine antibody as well as streptavidin- and protein A-coated beads. Binding of the protein-A coated beads to the antibody and the streptavidin beads to the peptide, leads to an energy transfer from one bead to the other, ultimately producing a luminescent/fluorescent signal.

[1] = 1 nM IRAK4, 1.6 μM peptide, 10 μM ATP, 3.5 h at RT, given as numeric bound
[2] = 1 nM IRAK4, 1.6 μM peptide, 10 μM ATP, 3.5 h at RT, class symbols

Chain of IRAK4 (Q9NWZ3 whole entry, species assumed): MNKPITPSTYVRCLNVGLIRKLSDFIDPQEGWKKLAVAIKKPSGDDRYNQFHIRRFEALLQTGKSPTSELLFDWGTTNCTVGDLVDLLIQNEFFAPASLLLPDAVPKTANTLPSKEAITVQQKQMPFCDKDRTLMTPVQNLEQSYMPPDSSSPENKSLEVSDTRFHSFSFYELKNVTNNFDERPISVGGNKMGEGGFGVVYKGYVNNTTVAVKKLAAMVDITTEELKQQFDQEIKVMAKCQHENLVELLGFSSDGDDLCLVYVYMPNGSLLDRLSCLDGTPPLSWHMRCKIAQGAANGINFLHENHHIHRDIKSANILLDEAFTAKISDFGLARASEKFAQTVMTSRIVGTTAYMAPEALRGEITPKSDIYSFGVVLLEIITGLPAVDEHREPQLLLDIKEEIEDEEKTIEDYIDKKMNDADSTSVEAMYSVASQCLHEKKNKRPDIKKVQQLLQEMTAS

| Structure (SMILES) | IC50 [2] [nM] | also measured |
| --- | --- | --- |
| Cn1cc(N2CCCCOc3cnccc3-c3nc(co3)C2=O)cn1 [Example 89] | – | IC50 [1]: > 10000 nM |
| CCOC(=O)CCN1CCCc2cc(ccn2)-c2nc(cs2)C(=O)Nc2cn(C3CCOCC3)nc2C(=O)NCC1 [Example 180] | < 100 | – |
| O=C1Nc2cn(C3CCOCC3)nc2C(=O)NCCCOCCCc2cc(ccn2)-c2nc1cs2 [Example 216] | < 100 | – |
| O=C1NCC2CCCC(C2)OCCCNc2cc(ccn2)-c2nc1cs2 (centres unmarked) [Example 80] | < 10000 | – |
| CCN1CCCCCCCCN(CC)c2cc(ccn2)-c2nc(cs2)C1=O [Example 65] | < 10000 | – |
| CC1CNC(=O)c2coc(n2)-c2ccnc(c2)NCCCCCO1 (centres unmarked) [Example 74] | < 10000 | – |
| CN1CCCCNC(=O)c2nn(C)cc2NC(=O)c2csc(n2)-c2ccnc1c2 [Example 223] | < 100 | – |
| O=C1NCCCCCCCCNc2cc(ccn2)-c2nc1cs2 [Example 64] | < 1000 | – |
| Cn1cc2c(n1)C(=O)NCCOCCOc1cc(ccn1)-c1nc(co1)C(=O)N2 [Compound 35] | < 100 | – |
| O=C1c2coc(n2)-c2ccnc(c2)OCCCCCCN1Cc1ccccc1 [Compound 51] | < 10000 | – |
| O=C1c2coc(n2)-c2ccnc(c2)OCCCCOCC2CCCN12 (centres unmarked) [Example 104] | < 10000 | – |
| O=C1Nc2cn(C3CCOCC3)nc2C(=O)NC(CCOCc2ccccc2)C(=O)NCCCc2cc(ccn2)-c2nc1cs2 (centres unmarked) [Example 199] | – | IC50 [1]: > 10000 nM |
| CN(C)CCC(=O)N1CCCc2cc(ccn2)-c2nc(cs2)C(=O)Nc2cn(C3CCOCC3)nc2C(=O)NCC1 [Example 177] | < 100 | – |
| O=C1Nc2cc(CCCN3CCCCC3)ccc2OCCCCCNc2cc(ccn2)-c2nc1cs2 [Compound 26] | < 100 | – |
| Cn1cc2c(n1)C(=O)NCCCCCOc1cc(ccn1)-c1nc(co1)C(=O)N2 [Compound 37] | < 100 | – |
| Cn1cc2c(n1)C(=O)NCCOCCOc1cc(ccn1)-n1cc(cn1)C(=O)N2 [Example 202] | < 10000 | – |
| O=C1c2coc(n2)-c2ccnc(c2)NCCCCCOCC2CCCN12 (centres unmarked) [Compound 59] | < 100 | – |
| CC1NC(=O)c2nn(C3CCOCC3)cc2NC(=O)c2csc(n2)-c2ccnc(c2)CCCNC1=O (centres unmarked) [Example 197] | < 1000 | – |
| O=C1c2coc(n2)-c2ccncc2OCCCN1CCCN1CCCCC1 [Example 102] | – | IC50 [1]: > 10000 nM |
| Cn1cc2c(n1)C(=O)NCCC/C=C/CCCN(C(=O)OC(C)(C)C)c1cc(ccn1)-c1nc(co1)C(=O)N2 [Compound 28] | < 1000 | – |
| O=C1CNC(=O)c2nn(C3CCOCC3)cc2NC(=O)c2csc(n2)-c2ccnc(c2)CCCN1 [Example 196] | < 100 | – |
| O=C1Nc2cn(C3CCOCC3)nc2C(=O)NCCCCCc2cc(ccn2)-c2nc1c[nH]2 [Example 97] | < 10000 | – |
| Cn1cc2c(n1)C(=O)NCCCOCCCc1cc(ccn1)-c1nc(cs1)C(=O)N2 [Example 215] | < 100 | – |
| O=C1Nc2cn(C3CCOCC3)nc2C(=O)NCCCc2cc(ccn2)-c2nc1cs2 [Example 192] | < 10000 | – |
| CN(C)CCCN1CCCCCCOc2cc(ccn2)-c2nc(co2)C1=O [Compound 55] | – | IC50 [1]: > 10000 nM |
| Cn1cc2c(n1)C(=O)NCCCCCOc1cnccc1-c1nc(co1)C(=O)N2 [Example 63] | < 100 | – |
| O=C1Nc2ccccc2OCCCCCCCn2cc(cn2)-c2nc1co2 [Compound 8] | < 100 | – |

| Structure (SMILES) | IC50 [2] [nM] | also measured |
| --- | --- | --- |
| CCN1CCCCCCCCNc2cc(ccn2)-c2nc(cs2)C1=O [Example 66] | < 1000 | – |
| O=C1Nc2cn(C3CCOCC3)nc2C(=O)NCCCCOc2cc(ccn2)-c2nc1co2 [Compound 36] | < 100 | – |
| O=C1Nc2ccccc2OCCCCCOc2cc(ccn2)-c2nc1co2 [Compound 3] | < 1000 | – |
| O=C1Nc2ccccc2OCCCCCCCn2cc(cn2)-c2nc1cs2 [Compound 6] | – | IC50: < 1000 nM |
| CN1CCCCCCOc2cc(ccn2)-c2nc(cs2)C1=O [Example 103] | < 10000 | – |
| NC(=O)c1ccc2c(c1)NC(=O)c1csc(n1)-c1ccnc(c1)NCCCCCO2 [Compound 24] | < 100 | – |
| Cn1cc2c(n1)C(=O)NCCCCNc1cc(ccn1)-c1nc(co1)C(=O)N2 [Compound 31] | < 100 | – |
| Cn1cc2c(n1)C(=O)NCCCCOc1cc(ccn1)-c1nc(c[nH]1)C(=O)N2 [Example 92] | < 10000 | – |
| CC(C)(C)OC(=O)N1CCC(CCn2ncc3c2C(=O)NCCOCCOc2cc(ccn2)-c2nc(cs2)C(=O)N3)CC1 [Example 157] | < 10000 | – |
| O=C1Nc2cn(C3CCOCC3)nc2C(=O)NCCOCCOc2cc(ccn2)-c2cccc1n2 [Example 204] | < 1000 | – |
| CC(C)(C)OC(=O)NCCC(=O)N1CCCc2cc(ccn2)-c2nc(cs2)C(=O)Nc2cn(C3CCOCC3)nc2C(=O)NCC1 [Example 171] | < 100 | – |
| CN1CCOCCNC(=O)c2nn(C)cc2NC(=O)c2csc(n2)-c2ccnc1c2 [Example 222] | < 100 | – |
| CN1CCCCCOc2ccccc2NC(=O)c2coc(n2)-c2ccnc1c2 [Compound 11] | < 1000 | – |
| Cn1cc2c(n1)C(=O)NCCCCCNc1cc(ccn1)-c1nc(co1)C(=O)N2 [Compound 33] | < 100 | – |
| O=C(O)CCC1NC(=O)c2nn(C3CCOCC3)cc2NC(=O)c2csc(n2)-c2ccnc(c2)CCCNC1=O (centres unmarked) [Example 194] | < 10000 | – |
| CN1CCOCCNC(=O)c2nn(CCN3CCOCC3)cc2NC(=O)c2csc(n2)-c2ccnc1c2 [Example 220] | < 100 | – |
| CN1CCCOc2cnccc2-c2nc(cs2)C1=O [Example 100] | – | IC50 [1]: > 10000 nM |
| O=C(NCCN1CCCCC1)c1ccc2c(c1)NC(=O)c1csc(n1)-c1ccnc(c1)NCCCCCO2 [Compound 18] | < 100 | – |
| CN1CCN(C(=O)c2ccc3c(c2)NC(=O)c2csc(n2)-c2ccnc(c2)NCCCCCO3)CC1 [Compound 23] | < 100 | – |
| CN1CCCCCCOc2cc(ccn2)-c2nc(co2)C1=O [Compound 52] | – | IC50 [1]: > 10000 nM |
| CNC(=O)N1CCCc2cc(ccn2)-c2nc(cs2)C(=O)Nc2cn(C3CCOCC3)nc2C(=O)NCC1 [Example 186] | < 100 | – |
| O=C1NCC(c2ccccc2)OCCCCCNc2cc(ccn2)-c2nc1co2 (centres unmarked) [Example 76] | < 100 | – |
| O=C(O)c1ccc2c(c1)NC(=O)c1csc(n1)-c1ccnc(c1)NCCCCCO2 [Compound 15] | < 10000 | – |
| CC(C)N1CCCc2cc(ccn2)-c2nc(cs2)C(=O)Nc2cn(C3CCOCC3)nc2C(=O)NCC1 [Example 174] | < 100 | – |
| O=C1Nc2cn(C3CCNCC3)nc2C(=O)NCCOCCOc2cc(ccn2)-c2nc1cs2 [Example 165] | < 100 | – |
| CCOC(=O)CN1CCCc2cc(ccn2)-c2nc(cs2)C(=O)Nc2cn(C3CCOCC3)nc2C(=O)NCC1 [Example 176] | – | IC50 [1]: > 10000 nM |
| O=C1Nc2cn(C3CCOCC3)nc2C(=O)NCCN(C(=O)C2CCOCC2)CCCc2cc(ccn2)-c2nc1cs2 [Example 190] | < 100 | – |

| Structure (SMILES) | IC50 [2] [nM] | also measured |
| --- | --- | --- |
| O=C1NCCCCCCOc2cc(ccn2)-c2nc1co2 [Compound 58] | < 1000 | – |
| Cn1cc2c(n1)C(=O)NCCOCCOc1cc(ccn1)-c1cccc(n1)C(=O)N2 [Example 203] | < 100 | – |
| Cn1cc2c(n1)C(=O)NCCCCCc1cc(ccn1)-c1nc(co1)C(=O)N2 [Compound 39] | < 100 | – |
| O=C1Nc2ccc(CCCN3CCCCC3)cc2OCCCCCNc2cc(ccn2)-c2nc1cs2 [Compound 27] | < 100 | – |
| O=C1NCC(C2CCCCC2)OCCCCCNc2cc(ccn2)-c2nc1co2 (centres unmarked) [Example 77] | – | IC50 [1]: > 10000 nM |
| Cn1cc2c(n1)C(=O)NCCOCCOc1cc(ccn1)-c1csc(n1)C(=O)N2 [Example 213] | < 10000 | – |
| CN1CCOCCNC(=O)c2nn(CCN3CCCCC3)cc2NC(=O)c2csc(n2)-c2ccnc1c2 [Example 221] | < 100 | – |
| CCNC(=O)N1CCCc2cc(ccn2)-c2nc(cs2)C(=O)Nc2cn(C3CCOCC3)nc2C(=O)NCC1 [Example 191] | < 100 | – |
| O=C1NCC(C2CC2)OCCCCCNc2cc(ccn2)-c2nc1co2 (centres unmarked) [Example 75] | < 1000 | – |
| O=C1NCCCCCCCCCn2cc(cn2)-c2nc1co2 [Compound 9] | < 1000 | – |
| O=C1NCC2CCC(CC2)OCCNc2cc(ccn2)-c2nc1co2 [Example 85] | < 1000 | – |
| CN(C)CCN1CCCCCCOc2cc(ccn2)-c2nc(co2)C1=O [Compound 54] | < 1000 | – |
| Cn1cc2c(n1)C(=O)NCCCCOc1cc(ccn1)-c1nc(cn1COCC[Si](C)(C)C)C(=O)N2 [Example 94] | – | IC50 [1]: > 10000 nM |
| Cn1cc2c(n1)C(=O)NCCCCCc1cc(ccn1)-c1nc(cn1COCC[Si](C)(C)C)C(=O)N2 [Example 99] | < 10000 | – |
| CC(C)(C)C(=O)N1CCCc2cc(ccn2)-c2nc(cs2)C(=O)Nc2cn(C3CCOCC3)nc2C(=O)NCC1 [Example 182] | < 1000 | – |
| O=C1Nc2cn(C3CCOCC3)nc2C(=O)NCCN(C(=O)CCO)CCCc2cc(ccn2)-c2nc1cs2 [Example 188] | < 100 | – |
| O=C1Nc2ccccc2OCC/C=C/COc2cc(ccn2)-c2nc1co2 [Example 1] | < 100 | – |
| O=C1c2csc(n2)-c2ccnc(c2)OCCCCOCC2CCCN12 (centres unmarked) [Example 106] | < 10000 | – |
| CC(C)(CO)C(=O)N1CCCc2cc(ccn2)-c2nc(cs2)C(=O)Nc2cn(C3CCOCC3)nc2C(=O)NCC1 [Example 185] | < 100 | – |
| CC1CCCCOc2ccccc2NC(=O)c2coc(n2)-c2ccnc(c2)N1 (centres unmarked) [Compound 10] | < 100 | – |
| Cn1cc2c(n1)C(=O)N(COCC[Si](C)(C)C)CCCCOc1cc(ccn1)-c1nc(cn1COCC[Si](C)(C)C)C(=O)N2 [Example 93] | < 10000 | – |
| O=C1Nc2ccccc2OCCCCNc2cc(ccn2)-c2nc1co2 [Example 70] | – | IC50 [1]: > 10000 nM |
| O=C1Nc2cc(C(=O)N3CCOCC3)ccc2OCCCCCNc2cc(ccn2)-c2nc1cs2 [Compound 22] | < 100 | – |
| C[Si](C)(C)CCOCn1cc2nc1-c1ccnc(c1)CCCCCNC(=O)c1nn(C3CCOCC3)cc1NC2=O [Example 98] | < 10000 | – |
| O=C1NCc2ccc(cc2)OCCOc2cc(ccn2)-c2nc1co2 [Example 78] | < 10000 | – |
| CN(C)C(=O)N1CCCc2cc(ccn2)-c2nc(cs2)C(=O)Nc2cn(C3CCOCC3)nc2C(=O)NCC1 [Example 187] | < 1000 | – |

— patent US9617282B2, “Macrocyclic compounds as IRAK4 inhibitors for the treatment of inflammatory diseases” (BIOGEN MA INC., priority 2013, dated 2017)
